Reference: PMC9715707, “Identification of a novel peptide ligand for the cancer-specific receptor mutation EGFRvIII using high-throughput sequencing of phage-selected peptides” (Scientific Reports, 2022)
Entries after “also recorded” stand apart in the source; their conditions may differ. Where no end group is shown, it is not given here. The star is where a group is joined. FITC = O=C1OC2(c3ccc(O)cc3Oc3cc(O)ccc32)c2ccc(NC(=S)*)cc21; Ahx = NCCCCCC(=O)O

What was measured:
EGFRvIII = target: T1, EGFRvIII (Homo sapiens, UniProt P00533, DELINS30-297G); assay: Microscale thermophoresis, EGFRvIII in solution; assay type: binding; conditions: read-out: Kd for EGFRvIII (MST, estimated)
T1 construct: using purified and active extracellular domain of the EGFRvIII protein; purchased Sino Biological 29662-H08B

CLTH/EGFR WT cells [1] = assay: Flow cytometry cellular binding of FITC-Ahx-peptides, EGFR WT cells; assay type: cell-based, human; conditions: 10 µM FITC-Ahx-peptide, 20 min at RT, 0.2% DMSO, MFI minus blank cells divided by spectrofluorometer correction factor
Procedure: (§1) Flow cytometry analysis was also performed to quantitatively analyze the binding affinity of the synthetized peptides to the different cell types. Briefly, 293T, CLTH/EGFR WT and CLTH/EGFRvIII cells (100,000 cells, 500 µL) were plated in 24-well plates and incubated overnight at 37 °C in a humidified atmosphere containing 5% CO2 overnight. The next day, cells were treated with FITC-Ahx-peptides using a stock solution in pure DMSO at 5 mM to reach a final concentration of 1, 5 or 10 µM (final percentage of DMSO of 0.2%). Plates were incubated for 20 min at RT. Cells were detached from the plates by a PBS wash, transferred to FACS tubes and washed two times with 4 mL of PBS. Cells were stained with LIVE/DEAD™ Fixable Near-IR Dead Cell Stain Kit (Thermofisher) as a viability marker. Cells were analyzed by flow cytometry on a MACSQuant Analyser 16 (Miltenyi Biotec) using the MACS Quantify software to acquire and process the data. LIVE/DEAD™ Fixable dye was excited at 640 nm and fluorescence was collected with the 785/62 nm filter. FITC was excited at 488 nm and fluorescence was collected with the 525/50 nm filter. Viable cells were gated, FITC fluorescence intensity was recorded and the mean fluorescence intensity (MFI) was measured. MFI values were then normalized by subtracting MFI from blank cells and dividing by the correction factor determined using a spectrofluorometer.
Since FITC fluorescence can be impacted by the nature of the amino acids in the peptide sequence and since the conjugation rate of FITC in the peptide synthesis can fluctuate, it was needed to measure a correction factor according to the fluorescence intensity of each peptide. As flow cytometry cannot analyze fluorescence of small molecules, a spectrofluorometer was used in similar conditions (excitation and emission) to the flow cytometry conditions. […] Fluorescence intensities at 525 nm of the FITC-Ahx-peptides in PBS were measured using a Varioskan plate reader (Thermo Scientific) and the SkanIt Software 5.0. […] Linear regressions were determined for each peptide. […]

293T cells [2] = assay: Flow cytometry cellular binding of FITC-Ahx-peptides, 293T cells; assay type: cell-based, human; conditions: 20 min at RT; for Normalized MFI at 10 µM, 293T: 293T cells (negative control), 10 µM FITC-Ahx-peptide, 0.2% DMSO, MFI minus blank cells divided by spectrofluorometer correction factor
Procedure: as §1
Since FITC fluorescence can be impacted by the nature of the amino acids in the peptide sequence and since the conjugation rate of FITC in the peptide synthesis can fluctuate, it was needed to measure a correction factor according to the fluorescence intensity of each peptide. As flow cytometry cannot analyze fluorescence of small molecules, a spectrofluorometer was used in similar conditions (excitation and emission) to the flow cytometry conditions. Experiments were performed by the flow cytometry core facility at Institut Mondor de Recherche Biomédical (IMRB U955, France). Fluorescence intensities at 525 nm of the FITC-Ahx-peptides in PBS were measured using a Varioskan plate reader (Thermo Scientific) and the SkanIt Software 5.0. Samples with concentrations between at 0.625, 1.25, 2.5, 5, 10 and 20 µM were prepared in triplicates using stock solutions of peptides in DMSO at 5 mM. Samples (100 µL) were analyzed in a 96-well plate using the following conditions: temperature of 25 °C, excitation wavelength at 490 nm, excitation bandwidth of 5 nm, emission wavelength at 525 nm, by step of 1 nm, measurement time 100 ms, and upper lens. Linear regressions were determined for each peptide. The correction factor was determined by dividing each slope by the arbitrary value 100 and was used to normalize the MFI obtained by flow cytometry.

CLTH/EGFRvIII cells [3] = assay: Flow cytometry binding of phage-displayed peptides, EGFRvIII cells; assay type: cell-based, human; conditions: phage-displayed peptide (M13), ~10^10 phages pre-absorbed on 293T cells, 1 h at 4 °C; anti-M13_biotin + anti-biotin_PE vs secondary-only
Procedure: (§2) Prior to being tested with the selected phages or peptides, each cell line was incubated with different commercial antibodies to confirm their phenotype (Fig. S3). A monoclonal anti-EGFR WT antibody (Life Technologies) and an anti-EGFRvIII primary antibody (Millipore) were used in flow cytometry experiments to evaluate the expression of EGFR WT and EGFRvIII receptors on CLTH/EGFR WT cells and CLTH/EGFRvIII cells respectively. Anti-IgG1 conjugated to phycoerythrin (PE) (Miltenyi Biotec) was used as a secondary antibody to read the fluorescence of PE. 293T cells were tested as a negative control. A phage-free control experiment was also performed on each cell type prior to testing phages. Anti-M13 conjugated to biotin (Abcam) was used as a primary antibody, anti-mouse IgG3 kappa monoclonal conjugated to biotin (Abcam) as isotype control and anti-biotin conjugated to PE (Miltenyi Biotec) as secondary antibody. A list of the antibodies is available in Table S3.
Binding of the selected phages on 293T human embryo kidney, CLTH/EGFR WT and CLTH/EGFRvIII cells was characterized by flow cytometry. Approximately 1 × 10^6 293T cells (expressing endogenous levels of EGFR WT) were collected, washed with cold PBS and blocked with 2%w/v milk-PBS (MPBS), rotating for 30 min at 4 °C. […] The blocked phages were then added to the blocked cells and incubated rotating for 1 h at 4 °C. After centrifugation at 500g for 3 min, the supernatant containing non-bound phages was collected. This step allowed the removal of phages that interacted with this EGFR negative cell line (i.e. not an EGFR-specific binding). The supernatant was then used to resuspend transfected cells washed beforehand (CLTH/EGFR WT expressing EGFR WT and CLTH/EGFRvIII expressing EGFRvIII). Treated cells were incubated for 1 h at 4 °C, collected by centrifugation and washed two times with PBS at pH 7.4. Cells were stained with Viobility™ 405/520 fixable dye (Miltenyi Biotec) as a viability marker. Cells were analyzed by flow cytometry on a MACSQuant Analyser 16 (Miltenyi Biotec) using the MACS Quantify software to acquire and process the data. Viobility™ 405/520 fixable dye was excited at 405 nm and fluorescence was collected with the 525/50 nm filter. PE was excited at 488 nm and fluorescence was collected with the 579/34 nm filter. Viable cells were gated, and PE fluorescence intensity was recorded.

CLTH/EGFRvIII cells [4] = assay: Flow cytometry cellular binding of FITC-Ahx-peptides, EGFRvIII cells; assay type: cell-based, human; conditions: for Normalized MFI at 10 µM, vIII: EGFRvIII cells, 10 µM FITC-Ahx-peptide, 0.2% DMSO, MFI minus blank cells divided by spectrofluorometer correction factor; for Normalized MFI ratio vIII/WT from 3 different concentrations, Mean: EGFRvIII over EGFR WT cell line, mean of ratios at 1, 5 and 10 µM
Text: Since FITC fluorescence can be impacted by the nature of the amino acids in the peptide sequence and since the conjugation rate of FITC in the peptide synthesis can fluctuate, it was needed to measure a correction factor according to the fluorescence intensity of each peptide. As flow cytometry cannot analyze fluorescence of small molecules, a spectrofluorometer was used in similar conditions (excitation and emission) to the flow cytometry conditions. […] Fluorescence intensities at 525 nm of the FITC-Ahx-peptides in PBS were measured using a Varioskan plate reader (Thermo Scientific) and the SkanIt Software 5.0. Samples with concentrations between at 0.625, 1.25, 2.5, 5, 10 and 20 µM were prepared in triplicates using stock solutions of peptides in DMSO at 5 mM. Samples (100 µL) were analyzed in a 96-well plate using the following conditions: temperature of 25 °C, excitation wavelength at 490 nm, excitation bandwidth of 5 nm, emission wavelength at 525 nm, by step of 1 nm, measurement time 100 ms, and upper lens. Linear regressions were determined for each peptide. The correction factor was determined by dividing each slope by the arbitrary value 100 and was used to normalize the MFI obtained by flow cytometry.

293T cells [5] = assay: Flow cytometry binding of phage-displayed peptides, 293T cells; assay type: cell-based, human; conditions: phage-displayed peptide (M13), 1 h at 4 °C
Procedure: as §2, with “Anti-M13 conjugated to biotin (Abcam) was used as a primary antibody, anti-mouse IgG3 kappa monoclonal conjugated to biotin (Abcam) as isotype control and anti-biotin conjugated to PE (Miltenyi Biotec) as secondary antibody. A list of the antibodies is available in Table S3.” left out
(§3) Binding of the selected phages on 293T human embryo kidney, CLTH/EGFR WT and CLTH/EGFRvIII cells was characterized by flow cytometry. […] Cells were analyzed by flow cytometry on a MACSQuant Analyser 16 (Miltenyi Biotec) using the MACS Quantify software to acquire and process the data. Viobility™ 405/520 fixable dye was excited at 405 nm and fluorescence was collected with the 525/50 nm filter. PE was excited at 488 nm and fluorescence was collected with the 579/34 nm filter. Viable cells were gated, and PE fluorescence intensity was recorded.

CLTH/EGFR WT cells [6] = assay: Flow cytometry binding of phage-displayed peptides, EGFR WT cells; assay type: cell-based, human; conditions: phage-displayed peptide (M13), 1 h at 4 °C
Procedure: as §2, with “Anti-M13 conjugated to biotin (Abcam) was used as a primary antibody, anti-mouse IgG3 kappa monoclonal conjugated to biotin (Abcam) as isotype control and anti-biotin conjugated to PE (Miltenyi Biotec) as secondary antibody. A list of the antibodies is available in Table S3.” left out
as §3

EGFR WT = conditions: prior art; cited from earlier work
Text: Two short peptides intended for EGFR targeting of tumor cells have been described in the prior art.

[7] = target: epidermal growth factor tyrosine kinase receptor mutation variant III (EGFRvIII) on CLTH/EGFRvIII cells (human) (UniProt P00533); assay: flow cytometry on cells; FITC-Ahx-peptides at 1, 5 or 10 µM (0.2% DMSO) on plated 293T, CLTH/EGFR WT and CLTH/EGFRvIII cells, 20 min at RT; FITC MFI of viable cells, normalised by blank cells and a spectrofluorometer correction factor

Molecule: FALGEA-NH2 [FALGEA]
- Kd (EGFRvIII): 3.7 µM

Molecule: FITC-Ahx-VLGREEWSTSYW-CONH2
- Normalized MFI at 10 µM, WT (CLTH/EGFR WT cells [1]): 4.0
- Normalized MFI at 10 µM, 293T (293T cells [2]): 5.1

Molecule: NESGITRIALQD [top peptide selected from the NGS data analysis]
- specific binding of phage-displayed peptide to EGFRvIII cells (PE fluorescence) (CLTH/EGFRvIII cells [3]): did not show a specific binding

Molecule: NPIVRSAEDGQL [top peptide selected from the NGS data analysis]
- specific binding of phage-displayed peptide to EGFRvIII cells (PE fluorescence) (CLTH/EGFRvIII cells [3]): did not show a specific binding

Molecule: VLGREEWSTSYW [novel 12-mer peptide ligand of EGFRvIII selected by phage display]
- specific binding of phage-displayed peptide to EGFRvIII cells (PE fluorescence) (CLTH/EGFRvIII cells [3]): appeared to show specific binding to the EGFRvIII cells compared to the EGFR WT and the parental cell
- non-specific interactions (293T cell binding), qualitative (293T cells [2]; FITC-Ahx-peptide, flow cytometry): minimized for VLGREEWSTSYW compared to the YHWYGYTPENVI control; also recorded: less nonspecific interaction (293T cells); also recorded: significantly less nonspecific cellular binding
- cellular binding to EGFRvIII cells, qualitative (CLTH/EGFRvIII cells [4]; FITC-Ahx-peptide, 20 min at RT, flow cytometry): A shift of fluorescence was observed for the VLGREEWSTSYW peptide on EGFRvIII compared to 293T and EGFR WT cell lines; also recorded: much higher for VLGREEWSTSYW compared to the FALGEA control; also recorded: binds to EGFRvIII cells with high efficiency; also recorded: greater affinity in cell surface binding experiments; also recorded: weaker signal with the free C-terminal FITC labeled peptide compared to the phage displayed format of the same peptide
- specificity for EGFRvIII cells versus EGFR WT cells, qualitative (CLTH/EGFRvIII cells [4]; FITC-Ahx-peptide, flow cytometry, MFI ratio vIII/WT at 1, 5, 10 µM): shows the specificity to EGFRvIII versus EGFR WT for VLGREEWSTSYW compared to the control peptide YHWYGYTPENVI; also recorded: good specificity compared to EGFR WT cells; also recorded: better selectivity to EGFRvIII cells than to EGFR WT cells compared to FALGEA

Molecule: VLGREEWSTSYW-M13
- difference in fluorescence intensity, anti-M13 vs secondary-only antibody, 293T cells (293T cells [5]): no significant difference in these fluorescence intensities
- specific binding of phage-displayed peptide to EGFRvIII cells (PE fluorescence) (CLTH/EGFRvIII cells [3]): showed a specific binding to EGFRvIII
- difference in fluorescence intensity, anti-M13 vs secondary-only antibody, EGFR WT cells (CLTH/EGFR WT cells [6]): no significant difference in these fluorescence intensities

Molecule: YHWYGYTPENVI
- reported binding to EGFR WT, qualitative (YHWYGYTPENVI) (EGFR WT): proven to bind to EGFR WT

Molecule: {FITC-Ahx}-FALGEA-NH2 (SMILES CC(C)C[C@H](NC(=O)[C@H](C)NC(=O)[C@H](Cc1ccccc1)NC(=O)CCCCCNC(=S)Nc1ccc2c(c1)C(=O)OC21c2ccc(O)cc2Oc2cc(O)ccc21)C(=O)NCC(=O)N[C@@H](CCC(=O)O)C(=O)N[C@@H](C)C(N)=O) [FALGEA control peptide with FITC-Ahx tag at the N-terminus, reference compound]
- Normalized MFI at 10 µM, WT (CLTH/EGFR WT cells [1]): 0.7
- Normalized MFI at 10 µM, 293T (293T cells [2]): 0.9
- Normalized MFI at 10 µM, vIII (CLTH/EGFRvIII cells [4]; 20 min at RT): 1.8
- Normalized MFI ratio vIII/WT from 3 different concentrations, Mean (CLTH/EGFRvIII cells [4]): 2.50

Molecule: {FITC-Ahx}-YHWYGYTPENVI-NH2 (SMILES CC[C@H](C)[C@H](NC(=O)[C@@H](NC(=O)[C@H](CC(N)=O)NC(=O)[C@H](CCC(=O)O)NC(=O)[C@@H]1CCCN1C(=O)[C@@H](NC(=O)[C@H](Cc1ccc(O)cc1)NC(=O)CNC(=O)[C@H](Cc1ccc(O)cc1)NC(=O)[C@H](Cc1c[nH]c2ccccc12)NC(=O)[C@H](Cc1c[nH]cn1)NC(=O)[C@H](Cc1ccc(O)cc1)NC(=O)CCCCCNC(=S)Nc1ccc2c(c1)C(=O)OC21c2ccc(O)cc2Oc2cc(O)ccc21)[C@@H](C)O)C(C)C)C(N)=O) [reference compound]
- Normalized MFI at 10 µM, WT (CLTH/EGFR WT cells [1]): 4.5
- Normalized MFI at 10 µM, 293T (293T cells [2]): 7.6
- Normalized MFI at 10 µM, vIII (CLTH/EGFRvIII cells [4]; 20 min at RT): 9.7
- Normalized MFI ratio vIII/WT from 3 different concentrations, Mean (CLTH/EGFRvIII cells [4]): 1.80

B1: FITC-Ahx-FALGEA-CONH2 (peptide)
peptide: {FITC-Ahx}-FALGEA-NH2
SMILES: CC(C)C[C@H](NC(=O)[C@H](C)NC(=O)[C@H](Cc1ccccc1)NC(=O)CCCCCNC(=S)Nc1ccc2c(c1)C(=O)OC21c2ccc(O)cc2Oc2cc(O)ccc21)C(=O)NCC(=O)N[C@@H](CCC(=O)O)C(=O)N[C@@H](C)C(N)=O
- normalized MFI at 10 µM [7]: 1.8
- normalized MFI ratio vIII/WT from 3 different concentrations (mean) [7]: 2.5
